Consider six compounds from article PMC9044058 (The Journal of General Physiology, 2022).

“And” between values parts separate entries of the source, which are not always exact repeats. Equal values may be shown once. Read-outs that look alike come from different tables or passages of the source.

Test [1] addresses T1, P-GltPh (S279E/D405N) (Pyrococcus horikoshii, UniProt O59010, D37H/D405N/E368H/K125H/K132H/K223H/K264H/K40H/S279E).
T1 construct: (His)8 behind a thrombin cleavage site (C, cleaved yes); made in house; host or cells: Escherichia coli DH10B
Format: binding. Particulars: for n1 / n2: single trials; for % n2 / ΔS1: trials and avg (mean ± SD); for fitted OFS2 fraction: L-Asp ITC, 500 mM sodium salt. How it is done:
(§1) Proteins were immediately concentrated to >5 mg/ml and diluted 2.5-fold to a final concentration of 30–50 µM. When diluted, the sample was supplemented with a final concentration of 1 mM DDM, 58 mM HEPES/KOH, pH 7.4, and an appropriate amount of sodium salt. 350 μl of protein samples was degassed and equilibrated to the temperature of the experiment, and ∼300 μl was loaded into the reaction cell of a small-volume NanoITC (TA Instruments), or in the case of TFB-TBOA experiments, an Affinity Auto ITC (TA Instruments). […] 2 μl of titrant was injected every 5–6 min, at a constant temperature and a stirring rate of 250 rpm (125 rpm for TFB-TBOA experiments). Injection heats measured after protein was saturated with the ligand were used to determine the dilution heats subtracted from the ligand binding heats. Data were analyzed using NanoAnalyze software (TA Instruments) applying either the “independent” or “multiple sites” (referred to as “single-state” and “two-state,” respectively, throughout the text) binding models. […] The fraction of total protein bound is given by the following: [PS]/[P]=n1K1[S]/1+K1[S]+n2K2[S]/1+K2[S], where ni is the apparent number of sites per protein molecule.

Test [2] deals with T2, WT GltPh (Pyrococcus horikoshii, UniProt O59010, D37H/E368H/K125H/K132H/K223H/K264H/K40H).
T2 construct: (His)8 behind a thrombin cleavage site (C, cleaved yes); made in house; host or cells: Escherichia coli DH10B
The test is described as follows: ITC of L-Asp and TFB-TBOA binding to WT GltPh. How it is done:
as §1
For the TFB-TBOA competition experiments, protein was first titrated with TBOA to saturation. Then, the concentration of TFB-TBOA was increased to a final concentration of 150 μM of TFB-TBOA, so that the overflow protein was also saturated.

Test [3] concerns liposome-reconstituted GltPh. Also noted: method as in Hall et al., 2020. To be noted: ref Hall et al., 2020; cited from earlier work.
Test [4] deals with D390A mutant. Also noted: method as in Riederer and Valiyaveetil, 2019. To be noted: ref Riederer and Valiyaveetil, 2019; cited from earlier work.
In test [5] the test system is GltPh Y317F. Also on record: method as in Riederer and Valiyaveetil, 2019. Particulars: ref Riederer and Valiyaveetil, 2019; cited from earlier work.
In test [6] the target is T3, GltPh (C321A/N378C) (Pyrococcus horikoshii, UniProt O59010, C321A/D37H/E368H/K125H/K132H/K223H/K264H/K40H/N378C).
T3 construct: (His)8 behind a thrombin cleavage site (C, cleaved yes); made in house; host or cells: Escherichia coli DH10B
Format: biochemical. Particulars: 200 mM sodium salt, 1 μM valinomycin, 1 μM L-Asp; triexponential fit; means and SEM.
Protocol: Liposomes were prepared from a 3:1 (wt/wt) mixture of E. coli polar lipid extract (Avanti Polar Lipids) and egg phosphatidylcholine in SM-KCl buffer (50 mM HEPES/Tris, pH 7.4, and 200 mM KCl). Liposomes were extruded through 400-nm filters (Whatman Nucleopore) using a syringe extruder (Avanti), and destabilized by the addition of Triton X-100 at 1:2 (wt/wt) detergent-to-lipid ratio. Labeled GltPh was added to the liposome suspension at 1:1,000 (wt/wt) protein-to-lipid ratio at room temperature for 30 min. Detergent was removed by six rounds incubation of Bio-Beads (two rounds at 23°C for 2 h each, one round at 4°C overnight, and three rounds at 4°C for 2 h each). The excess substrate was removed by three rounds of centrifugation for 1 h at 49,192 g at 4°C, removal of the supernatant, addition of 1 ml fresh SM buffer, and three freeze/thaw cycles. Liposomes were concentrated to 50 mg/ml, and ccPEB1a-Y198F labeled with activated LD555P-MAL and LD655-MAL dyes as described ([Ciftci et al., 2020]) was added at a final concentration of 0.6 μM and encapsulated by two freeze–thaw cycles. To remove unencapsulated ccPEB1a-Y198F, 1 ml of SM-KCl buffer was added, and liposomes were centrifuged for 1 h at 49.192 g at 4°C. […]
Buffers were supplemented with an oxygen-scavenging system as above, and the smFRET movies were recorded with 400-ms integration time using 20–40-mW laser power. […]
Traces were analyzed using Spartan software ([Juette et al., 2016]). […] Traces with multiple photobleaching events (indicative of multiple sensors in a liposome) or inconsistent total fluorescence intensity were also discarded. Remaining traces were sorted by either the presence or absence of observable transport events (responding and nonresponding traces, respectively), determined by an increase in FRET efficiency from ∼0.55–0.6 to ∼0.75–0.8.
Responding traces from each video were plotted as time-dependent mean FRET efficiency. Buffer replacement time was determined as described ([Ciftci et al., 2020]). […]

Test [7] has as its system GltPh. Also on record: method as in earlier work. Particulars: OFS over IFS; ref Mcilwain et al., 2016; Boudker et al., 2007; Wang and Boudker, 2020; cited from earlier work.
The target of test [8] is P-GltPh (S279E/D405N) (UniProt O59010). Kind of test: cryo-EM structure; P-GltPh in 0.8 mM DDM, 20 mM HEPES/Tris pH 7.4, 250 mM NaNO3, 1 mM L-Asp; C3 symmetry imposed, then symmetry expansion and focused classification of single protomers; Data S2 (L-Asp present throughout purification) and Data S1 (L-Asp added ~5 s before freezing).
[9] abbreviates: 500 mM NaCl, 10°C and 15°C, n = 6.
[10] abbreviates: 10°C, 500 mM NaCl, two-state model.
Where [11] appears, read: 15°C, 500 mM NaCl, two-state model.
The mark [12] stands for this setting: 500 mM Na-gluconate, 15°C, Fit 1.
[13] abbreviates: 500 mM Na-gluconate, 15°C, Fit 2.

T3 sequence (O59010 1-417 D37H/K40H/K125H/K132H/K223H/K264H/C321A/E368H/N378C): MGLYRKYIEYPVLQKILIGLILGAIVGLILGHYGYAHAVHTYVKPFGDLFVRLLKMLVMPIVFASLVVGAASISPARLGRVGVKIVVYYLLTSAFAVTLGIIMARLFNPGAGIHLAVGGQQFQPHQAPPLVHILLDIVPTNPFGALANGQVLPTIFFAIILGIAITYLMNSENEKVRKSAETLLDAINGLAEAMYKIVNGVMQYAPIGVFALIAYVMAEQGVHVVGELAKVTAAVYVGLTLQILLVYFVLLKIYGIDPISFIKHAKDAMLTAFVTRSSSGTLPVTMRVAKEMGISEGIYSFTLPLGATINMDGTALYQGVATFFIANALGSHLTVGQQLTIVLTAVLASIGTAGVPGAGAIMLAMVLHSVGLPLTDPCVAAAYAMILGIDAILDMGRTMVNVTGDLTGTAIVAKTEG
T2 sequence (O59010 1-417 D37H/K40H/K125H/K132H/K223H/K264H/E368H): as the sequence (O59010 1-417 D37H/K40H/K125H/K132H/K223H/K264H/C321A/E368H/N378C) above, with A321C, C378N counted along it
T1 sequence (O59010 1-417 D37H/K40H/K125H/K132H/K223H/K264H/S279E/E368H/D405N): as the sequence (O59010 1-417 D37H/K40H/K125H/K132H/K223H/K264H/C321A/E368H/N378C) above, with S279E, A321C, C378N, D405N counted along it

Take `N[C@@H](CC(=O)O)C(=O)O` [L-Asp, L-aspartate]: the “sums of the apparent stoichiometries (n1 and n2 values), average” value in test [1] (setting [9]) is given as 0.97 ± 0.26. Moreover, the “sums of the apparent stoichiometries (n1 and n2 values), range” value in test [1] (setting [9]) is 0.74–1.53. Moreover, the n1 in test [1] (setting [10]) was 0.61 and 0.64 and 0.78; in test [1] (setting [11]), 1.13 and 0.64 and 0.63; in test [2] (setting [12]), 0.82; in test [2] (setting [13]), 0.37; in test [2] (500 mM Na-gluconate, 35°C) it was 0.16. Also, the n2 in test [1] (setting [10]) is 0.13 and 0.20 and 0.18; in test [1] (setting [11]), 0.39 and 0.22 and 0.29; in test [2] (setting [12]), 0.36; in test [2] (setting [13]) it was 0.89; in test [2] (500 mM Na-gluconate, 35°C), 1.30. Further, the “% n2” value is 18% and 24% and 19% in test [1] (setting [10]); 26% and 31% in test [1] (setting [11]). Further, the ΔS1 in test [1] (setting [10]) is 32.2 cal mol^-1 K^-1 and 40.0 cal mol^-1 K^-1 and 31.1 cal mol^-1 K^-1; in test [1] (setting [11]), 29.4 cal mol^-1 K^-1 and 29.2 cal mol^-1 K^-1 and 31.4 cal mol^-1 K^-1. The ΔH in test [1] (15°C, 50 mM NaCl, single-state model) was -2.3 kcal/mol; in test [1] (15°C, 500 mM Na-gluconate, two-state model, first state), -2.3 kcal/mol; in test [1] (15°C, 500 mM Na-gluconate, two-state model, second state) it was -5.5 kcal/mol; in test [1] (15°C, 500 mM NaCl, two-state model, first state), -3.3 kcal/mol; in test [1] (15°C, 500 mM NaCl, two-state model, second state), -7.1 kcal/mol; in test [1] (15°C, 500 mM NaNO3, two-state model, first state), -2.1 kcal/mol. The ΔH in test [1] (15°C, 500 mM NaNO3, two-state model, second state) is -6.5 kcal/mol; in test [1] (15°C, 1 M NaCl, two-state model, first state), -3.7 kcal/mol; in test [1] (15°C, 1 M NaCl, two-state model, second state), -8.7 kcal/mol. The ΔH1 in test [2] (setting [12]) is -22.7 kcal/mol; in test [2] (setting [13]), -50.0 kcal/mol; in test [2] (500 mM Na-gluconate, 35°C), -24.6 kcal/mol. In addition, the ΔH2 in test [2] (setting [12]) was 39.4 kcal/mol; in test [2] (setting [13]), 16.2 kcal/mol; in test [2] (500 mM Na-gluconate, 35°C) it was -4.7 kcal/mol. Also, in test [2] (GltPh saturated with TFB-TBOA, competed with L-Asp, 15°C), the “shape of ITC competition isotherms” value is “bimodal isotherms”. The Hill coefficient in test [3] was 0.69. In addition, the “lower affinity versus GltPh” value in test [4] is 1,000 fold. In addition, the “loss of L-Asp affinity” value in test [5] is listed as 10 fold.
Consider `O=C([O-])[C@H](O)[C@@H](O)[C@H](O)[C@H](O)CO.[Na+]` [Na-gluconate, sodium gluconate], for which the “Slow (%) transporter population” value in test [6] is 81.1 ± 3.1%.
As to `[Cl-].[Na+]` [NaCl], the “fitted OFS2 fraction” value in test [1] (10°C) was roughly 20%; in test [1] (15°C) it was roughly 28%. In addition, the “Slow (%) transporter population” value in test [6] was determined as 79.5 ± 3.4%.
`O=[N+]([O-])[O-].[Na+]` [NaNO3]: the “fitted OFS2 fraction” value in test [1] (15°C) is recorded as roughly 38%. The “Slow (%) transporter population” value in test [6] is 87.3 ± 2.2%.
With `N[C@H](C(=O)O)[C@H](OCc1cccc(NC(=O)c2ccc(C(F)(F)F)cc2)c1)C(=O)O` [TFB-TBOA], the “shape of ITC binding isotherms” value in test [2] (15°C, 500 mM Na-gluconate, NaCl or NaNO3) is given as “bimodal ITC isotherms”. For the same compound, the “preference for OFS” value in test [7] is reported as 100 fold.
For “P-GltPh (S279E/D405N) (from UniProt O59010 1-417)”, in test [8], the stoichiometry N amounted to 3.

The Hill coefficient is a measure of the steepness of the concentration-response curve. In general, stoichiometry N refers to the number of molecules, sites or subunits per partner or assembly.
